Assay results taken from patent US6737383B1, “Herbicidal oxadiazolidines” (priority 1999, dated 2004).

Assays:
purple nutsedge = assay: Test B pre/postemergence purple nutsedge; format: in vivo, Cyperus rotundus
How it was run: (§1)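 Herbicidal effect was estimated by eye on a ten-point control scale after plants spent twelve to sixteen days in a greenhouse following soil or foliar treatment. Foliar sprays targeted plants at one to four leaves; all doses were formulated in a non-phytotoxic solvent with surfactant.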

cocklebur = assay: Test B pre/postemergence cocklebur; format: in vivo, Xanthium strumarium
How it was run: as §1

surinam grass = assay: Test B pre/postemergence surinam grass; format: in vivo, Brachiaria decumbens
How it was run: as §1

corn = assay: Test B pre/postemergence corn; format: in vivo, Zea mays
How it was run: as §1

wild oat = assay: Test B pre/postemergence wild oat; format: in vivo, Avena fatua
How it was run: as §1

pigweed = assay: Test B pre/postemergence pigweed; format: in vivo, Amaranthus retroflexus
How it was run: as §1

soybean = assay: Test B pre/postemergence soybean; format: in vivo, Glycine max
How it was run: as §1

giant foxtail = assay: Test B pre/postemergence giant foxtail; format: in vivo, Setaria faberii
How it was run: as §1

crabgrass = assay: Test B pre/postemergence crabgrass; format: in vivo, Digitaria sanguinalis
How it was run: as §1

morningglory = assay: Test B pre/postemergence morningglory; format: in vivo, Ipomoea hederacea
How it was run: as §1

blackgrass = assay: Test B pre/postemergence blackgrass; format: in vivo, Alopecurus myosuroides
How it was run: as §1

rape = assay: Test B pre/postemergence rape; format: in vivo, Brassica napus
How it was run: as §1

velvetleaf = assay: Test B pre/postemergence velvetleaf; format: in vivo, Abutilon theophrasti
How it was run: as §1

bedstraw = assay: Test B pre/postemergence bedstraw; format: in vivo, Galium aparine
How it was run: as §1

wheat = assay: Test B pre/postemergence wheat; format: in vivo, Triticum aestivum
How it was run: as §1

sugar beet = assay: Test B pre/postemergence sugar beet; format: in vivo, Beta vulgaris
How it was run: as §1

[1] = Postemergence, Rate 62 g/ha, scale 0 to 10, 0 is no effect, 10 is complete control
[2] = Postemergence, Rate 125 g/ha, scale of 0 to 10 where 0 is no effect and 10 is complete control
[3] = Preemergence, Rate 62 g/ha, scale of 0 to 10 where 0 is no effect and 10 is complete control
[4] = Preemergence, Rate 125 g/ha, scale of 0 to 10 where 0 is no effect and 10 is complete control
[5] = Preemergence, Rate 250 g/ha, scale 0 to 10 (0 no effect, 10 complete control)
[6] = Preemergence, Rate 500 g/ha, scale of 0 to 10 where 0 is no effect and 10 is complete control
[7] = Postemergence, Rate 250 g/ha, scale of 0 to 10, 0 is no effect, 10 is complete control
[8] = Postemergence, Rate 500 g/ha, scale of 0 to 10 where 0 is no effect and 10 is complete control

CCCCn1c(=O)on(C(=O)N(c2ccc(F)cc2F)C(C)C)c1=O [Compound 635]
Plant response rating, Nutsedge (purple nutsedge; [1]): 0 | Plant response rating, Nutsedge (purple nutsedge; [2]): 0 | Nutsedge plant response rating (purple nutsedge; [3]): 0 | Nutsedge plant response rating (purple nutsedge; [4]): 0 | Plant response rating, Nutsedge (purple nutsedge; [5]): 3 | Plant response rating, Nutsedge (purple nutsedge; [6]): 4 | Plant response rating, Cocklebur (cocklebur; [1]): 2 | Plant response rating, Cocklebur (cocklebur; [2]): 2 | Cocklebur plant response rating (cocklebur; [7]): 3 | Plant response rating, Cocklebur (cocklebur; [8]): 3 | Cocklebur plant response rating (cocklebur; [3]): 0 | Cocklebur plant response rating (cocklebur; [4]): 0 | Plant response rating, Cocklebur (cocklebur; [5]): 0 | Plant response rating, Cocklebur (cocklebur; [6]): 0 | Plant response rating, B. signalgrass (surinam grass; [1]): 0 | Plant response rating, B. signalgrass (surinam grass; [2]): 0 | B. signalgrass plant response rating (surinam grass; [7]): 2 | Plant response rating, B. signalgrass (surinam grass; [8]): 8 | B. signalgrass plant response rating (surinam grass; [3]): 4 | B. signalgrass plant response rating (surinam grass; [4]): 8 | Plant response rating, B. signalgrass (surinam grass; [5]): 9 | Plant response rating, B. signalgrass (surinam grass; [6]): 9 | Plant response rating, Corn (corn; [1]): 0 | Plant response rating, Corn (corn; [2]): 0 | Corn plant response rating (corn; [7]): 0 | Plant response rating, Corn (corn; [8]): 2 | Corn plant response rating (corn; [3]): 0 | Plant response rating, Corn (corn; [5]): 2 | Plant response rating, Corn (corn; [6]): 8 | Plant response rating, Wild oats (wild oat; [1]): 0 | Plant response rating, Wild oats (wild oat; [2]): 0 | Wild oats plant response rating (wild oat; [7]): 5 | Wild oats plant response rating (wild oat; [3]): 2 | Wild oats plant response rating (wild oat; [4]): 6 | Plant response rating, Wild oats (wild oat; [5]): 9 | Plant response rating, Wild oats (wild oat; [6]): 9 | Plant response rating, Redroot pigweed (pigweed; [1]): 0 | Plant response rating, Redroot pigweed (pigweed; [2]): 0 | Redroot pigweed plant response rating (pigweed; [7]): 3 | Redroot pigweed plant response rating (pigweed; [3]): 10 | Redroot pigweed plant response rating (pigweed; [4]): 10 | Plant response rating, Redroot pigweed (pigweed; [5]): 10 | Plant response rating, Redroot pigweed (pigweed; [6]): 10 | Plant response rating, Soybean (soybean; [1]): 3 | Plant response rating, Soybean (soybean; [2]): 4 | Soybean plant response rating (soybean; [7]): 4 | Soybean plant response rating (soybean; [3]): 0 | Soybean plant response rating (soybean; [4]): 0 | Plant response rating, Soybean (soybean; [5]): 0 | Plant response rating, Soybean (soybean; [6]): 2 | Plant response rating, Giant foxtail (giant foxtail; [1]): 5 | Plant response rating, Giant foxtail (giant foxtail; [2]): 8 | Giant foxtail plant response rating (giant foxtail; [7]): 8 | Plant response rating, Giant foxtail (giant foxtail; [8]): 9 | Giant foxtail plant response rating (giant foxtail; [3]): 9 | Giant foxtail plant response rating (giant foxtail; [4]): 9 | Plant response rating, Giant foxtail (giant foxtail; [5]): 10 | Plant response rating, Giant foxtail (giant foxtail; [6]): 10 | Plant response rating, Crabgrass (crabgrass; [1]): 4 | Plant response rating, Crabgrass (crabgrass; [2]): 9 | Crabgrass plant response rating (crabgrass; [7]): 8 | Plant response rating, Crabgrass (crabgrass; [8]): 9 | Crabgrass plant response rating (crabgrass; [3]): 9 | Crabgrass plant response rating (crabgrass; [4]): 9 | Plant response rating, Crabgrass (crabgrass; [5]): 9 | Plant response rating, Crabgrass (crabgrass; [6]): 9 | Plant response rating, Morningglory (morningglory; [1]): 1 | Plant response rating, Morningglory (morningglory; [2]): 4 | Morningglory plant response rating (morningglory; [7]): 4 | Plant response rating, Morningglory (morningglory; [8]): 7 | Morningglory plant response rating (morningglory; [3]): 0 | Morningglory plant response rating (morningglory; [4]): 0 | Plant response rating, Morningglory (morningglory; [5]): 0 | Plant response rating, Morningglory (morningglory; [6]): 6 | Plant response rating, Blackgrass (blackgrass; [1]): 2 | Plant response rating, Blackgrass (blackgrass; [2]): 3 | Blackgrass plant response rating (blackgrass; [7]): 7 | Blackgrass plant response rating (blackgrass; [3]): 9 | Plant response rating, Blackgrass (blackgrass; [5]): 9 | Plant response rating, Blackgrass (blackgrass; [6]): 8 | Plant response rating, Rape (rape; [1]): 2 | Plant response rating, Rape (rape; [2]): 5 | Rape plant response rating (rape; [7]): 7 | Plant response rating, Rape (rape; [8]): 9 | Rape plant response rating (rape; [3]): 6 | Rape plant response rating (rape; [4]): 6 | Plant response rating, Rape (rape; [5]): 7 | Plant response rating, Rape (rape; [6]): 9 | Plant response rating, Velvetleaf (velvetleaf; [1]): 0 | Plant response rating, Velvetleaf (velvetleaf; [2]): 0 | Velvetleaf plant response rating (velvetleaf; [7]): 2 | Velvetleaf plant response rating (velvetleaf; [3]): 0 | Plant response rating, Velvetleaf (velvetleaf; [5]): 3 | Plant response rating, Velvetleaf (velvetleaf; [6]): 7 | Plant response rating, Bedstraw (bedstraw; [1]): 5 | Plant response rating, Bedstraw (bedstraw; [2]): 7 | Bedstraw plant response rating (bedstraw; [7]): 9 | Bedstraw plant response rating (bedstraw; [3]): 9 | Bedstraw plant response rating (bedstraw; [4]): 8 | Plant response rating, Bedstraw (bedstraw; [5]): 7 | Plant response rating, Bedstraw (bedstraw; [6]): 9 | Plant response rating, Wheat (wheat; [1]): 0 | Plant response rating, Wheat (wheat; [2]): 0 | Wheat plant response rating (wheat; [7]): 2 | Wheat plant response rating (wheat; [3]): 0 | Wheat plant response rating (wheat; [4]): 0 | Plant response rating, Wheat (wheat; [5]): 3 | Plant response rating, Wheat (wheat; [6]): 4 | Plant response rating, Sugarbeets (sugar beet; [1]): 3 | Plant response rating, Sugarbeets (sugar beet; [2]): 3 | Sugarbeets plant response rating (sugar beet; [7]): 7 | Sugarbeets plant response rating (sugar beet; [3]): 3 | Sugarbeets plant response rating (sugar beet; [4]): 5 | Plant response rating, Sugarbeets (sugar beet; [5]): 8 | Plant response rating, Sugarbeets (sugar beet; [6]): 9
